Publication PMC9457746, “Synthesis of Sulfonamides Incorporating Piperidinyl-Hydrazidoureido and Piperidinyl-Hydrazidothioureido Moieties and Their Carbonic Anhydrase I, II, IX and XII Inhibitory Activity” (Molecules, 2022)

Columns and labels:
hCA I = hCA I (Homo sapiens, UniProt P00915); assay: stopped flow CO2 hydrase assay, hCA I inhibition
Procedure: (§1) An Applied Photophysics stopped-flow instrument has been used for assaying the CA catalyzed CO2 hydration activity using the Khalifah procedure [23]. The used indicator was phenol red (0.2 mM), the absorbance maximum was of 557 nm, and the buffer was 20 mM Hepes (pH 7.5), whereas 20 mM Na2SO4 were employed for maintaining the ionic strength constant. […] Uncatalyzed rates were subtracted from the observed total rates. […] Inhibitor and enzyme solutions were preincubated together for 15 min, for assuring the formation of the E–I complex. The inhibition constants were obtained by non-linear least squares using the Cheng–Prusoff equation, as reported earlier [24, 25, 26] and represent the mean from at least three different determinations.

hCA II = hCA II (Homo sapiens, UniProt P00918); assay: stopped flow CO2 hydrase assay, hCA II inhibition
Procedure: as §1

hCA IX = hCA IX (Homo sapiens, UniProt Q16790); assay: stopped flow CO2 hydrase assay, hCA IX inhibition
Procedure: as §1

hCA XII = hCA XII (Homo sapiens, UniProt O43570); assay: stopped flow CO2 hydrase assay, hCA XII inhibition
Chain of hCA XII (O43570 25-354): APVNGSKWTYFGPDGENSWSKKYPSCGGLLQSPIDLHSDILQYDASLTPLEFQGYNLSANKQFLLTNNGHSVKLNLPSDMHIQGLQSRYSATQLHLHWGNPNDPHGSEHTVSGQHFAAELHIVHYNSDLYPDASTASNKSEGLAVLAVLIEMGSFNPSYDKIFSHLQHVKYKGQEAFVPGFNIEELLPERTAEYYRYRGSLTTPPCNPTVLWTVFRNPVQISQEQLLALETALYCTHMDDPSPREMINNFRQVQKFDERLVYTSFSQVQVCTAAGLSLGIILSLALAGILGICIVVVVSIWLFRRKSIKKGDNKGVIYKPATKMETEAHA
Procedure: as §1

Chain of hCA I (P00915 whole entry): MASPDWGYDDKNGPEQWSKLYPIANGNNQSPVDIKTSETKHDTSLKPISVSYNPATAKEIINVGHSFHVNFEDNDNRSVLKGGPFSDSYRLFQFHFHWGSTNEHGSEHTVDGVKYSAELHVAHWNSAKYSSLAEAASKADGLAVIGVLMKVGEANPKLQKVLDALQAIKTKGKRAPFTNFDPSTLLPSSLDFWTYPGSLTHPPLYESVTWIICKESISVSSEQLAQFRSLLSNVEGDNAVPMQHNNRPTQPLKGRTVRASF

Row | Compound | melting point [°C] | Ki (hCA I) [nM] | Ki (hCA II) [nM] | Ki (hCA IX) [nM] | Ki (hCA XII) [nM]
1 | Cc1ccccc1NC(=S)NNC(=O)C1CCN(C(=O)c2ccc(S(N)(=O)=O)cc2)CC1 [Compound 6r, 2-(1-(4-sulfamoylbenzoyl)piperidine-4-carbonyl)-N-(o-tolyl)hydrazine-1-carbothioamide] | 209 to 210 | 277 | 38.5 | 9 | 18.4
2 | Cc1cccc(C)c1NC(=S)NNC(=O)C1CCN(C(=O)c2ccc(S(N)(=O)=O)cc2)CC1 [Compound 6u, N-(2,6-Dimethylphenyl)-2-(1-(4-sulfamoylbenzoyl)piperidine-4-carbonyl)hydrazinecarbothioamide] | 233 to 234 | 308 | 89.6 | 4.7 | 9.5
3 | NS(=O)(=O)c1ccc(C(=O)N2CCC(C(=O)NNC(=S)NCc3ccccc3)CC2)cc1 [Compound 6v, N-Benzyl-2-(1-(4-sulfamoylbenzoyl)piperidine-4-carbonyl)hydrazinecarbothioamide] | > 250 | 198 | 71.4 | 24.2 | 25

Stronger by Ki (hCA I), values ahead:

Row | melting point [°C] | Ki (hCA I) [nM] | Ki (hCA II) [nM] | Ki (hCA IX) [nM] | Ki (hCA XII) [nM] | Compound
4 | 240 to 241 | 178 | 29.3 | 31.7 | 29.9 | COc1ccc(CNC(=S)NNC(=O)C2CCN(C(=O)c3ccc(S(N)(=O)=O)cc3)CC2)cc1 [Compound 6w, N-(4-Methoxybenzyl)-2-(1-(4-sulfamoylbenzoyl)piperidine-4-carbonyl)hydrazinecarbothioamide]
5 | 183 to 184 | 118 | 5.7 | 1.7 | 19.6 | NS(=O)(=O)c1ccc(C(=O)N2CCC(C(=O)NNC(=S)NC3CCCCC3)CC2)cc1 [Compound 6y, N-Cyclohexyl-2-(1-(4-sulfamoylbenzoyl)piperidine-4-carbonyl)hydrazinecarbothioamide]
